The values that follow are results of earlier work, collected in patent US8097283B2, “Methods and compositions for imaging” (Mount Sinai School of Medicine, priority 2004, dated 2012).

The conditions of series [1]: 0.5 T, 37° C.
Assay in series [2]: not given
The source holds these as a separate data set.

The conditions of series [3]: mouse.

Read-outs that look alike come from different tables or passages of the source.

Turning to `O=C([O-])CN1CCN(CC(=O)[O-])CCN([C@H](CO)[C@H](O)CO)CCN(CC(=O)[O-])CC1.[Gd+3]` (racemic) [Gadobutrol, Gd-DO3A-butrol], the r1 in series [1] is 3.6 mM⁻¹ s⁻¹.

Consider `CNC[C@H](O)[C@@H](O)[C@H](O)[C@H](O)CO.CNC[C@H](O)[C@@H](O)[C@H](O)[C@H](O)CO.O=C([O-])CN(CCN(CC(=O)[O-])CC(=O)O)CCN(CC(=O)O)C(COCc1ccccc1)C(=O)[O-].[Gd+3]` (stereo not drawn) [Gadobenate, Gd-BOPTA], for which the r1 in series [1] was 4.4 mM⁻¹ s⁻¹. Take `O=C([O-])CN(CCN(CC(=O)[O-])CC(=O)O)CCN(CC(=O)[O-])CC(=O)O.[Gd+3]` [Gadopenetate, Gd-DTPA]: the r1 in series [1] was 3.8 mM⁻¹ s⁻¹. For the same molecule, the Osmolality (concentration 0.5M) is on record as 1.96 osmol/kg. Moreover, the Viscosity in series [2] (concentration 0.5M) is 2.9 cP. Take `O=C([O-])CN1CCN(CC(=O)[O-])CCN(CC(=O)[O-])CCN(CC(=O)[O-])CC1.[Gd+3]` [Gadoterate, Gd-DOTA]: the r1 in series [1] was 3.6 mM⁻¹ s⁻¹.

In the case of Gd-DTPA-BMEA [Gadoversetamide], in series [1], the r1 is 4.7 mM⁻¹ s⁻¹.

With Gd-HPDO3A [Gadoteridol], in series [1], the r1 was 3.7 mM⁻¹ s⁻¹. As for Mn-DPDP [Mangafodipir], the r1 in series [1] was 1.9 mM⁻¹ s⁻¹. For the same molecule, the Osmolality (concentration 0.01M) is on record as 0.29 osmol/kg. In addition, the Viscosity in series [2] (concentration 0.01M) is 0.7 cP.

B1: HDL-apoAI: apoAI moiety of HDL in the circulation of a mouse (protein, UniProt Q00623 25-264, looked up)
Apolipoprotein A-I: DEPQSQWDKVKDFANVYVDAVKDSGRDYVSQFESSSLGQQLNLNLLENWDTLGSTVSQLQERLGPLTRDFWDNLEKETDWVRQEMNKDLEEVKQKVQPYLDEFQKKWKEDVELYRQKVAPLGAELQESARQKLQELQGRLSPVAEEFRDRMRTHVDSLRTQLAPHSEQMRESLAQRLAELKSNPTLNEYHTRAKTHLKTLGEKARPALEDLRHSLMPMLETLKTQVQSVIDKASETLTAQ
Take B1: in series [3], the “t1/2 in the circulation” value is reported as “roughly 10 h”.
